# From patent US20210161135A1, “WEED CONTROL FROM APPLICATIONS OF PYRIDINE CARBOXYLIC ACID HERBICIDES AND 4-HYDROXYPHENYL-PYRUVATE DIOXYGENASE (HPPD) INHIBITORS” (Dow AgroSciences LLC, priority 2018, published 2021)
# Assays:
# Experiment in all cases: Postemergence herbicidal activity, greenhouse, visual injury after 20-22 d
# Format in all cases: in vivo
# [1] = system: grain sorghum (Sorghum vulgare, SORVU); conditions: two trials
# Experimental: (§1) Seeds of the desired test plant species were planted in Sun Gro MetroMix® 306 planting mixture, which typically has a pH of 6.0 to 6.8 and an organic matter content of about 30 percent, in plastic pots with a surface area of 103.2 square centimeters (cm^2). When required to ensure good germination and healthy plants, a fungicide treatment and/or other chemical or physical treatment was applied. The plants were grown for 7-36 days (d) in a greenhouse with an approximate 14-hour (h) photoperiod which was maintained at about 23° C. during the day and 22° C. during the night. Nutrients and water were added on a regular basis and supplemental lighting was provided with overhead metal halide 1000-Watt lamps as necessary. The plants were employed for testing when they reached the second or third true leaf stage.
# (§2) An emulsifiable concentrate (EC) formulation containing Compound 1 at 100 gai/L was prepared by combining Compound 1 with 1-butyl-2-pyrrolidinone (Tamisolve NxG; 360.5 g/L), benzyl acetate (544.6 g/L) and Agnique MBL 520L surfactant (52.9 g/L). […] The concentrated stock solutions were diluted with an aqueous mixture of 1.5% v/v of Agri-dex crop oil concentrate to provide the appropriate application rates. Compound requirements are based upon a 12 milliliter (mL) application volume at a rate of 187 liters per hectare (L/ha). Spray solutions of the experimental compound mixtures were prepared by adding the stock solutions to the appropriate amount of dilution solution to form a 12 mL spray solution in two-way combinations. Formulated compounds were applied to the plant material with an overhead Mandel track sprayer equipped with 8002E nozzles calibrated to deliver 187 L/ha over an application area of 0.503 square meters (m^2) at a spray height of […] above average plant canopy. Control plants were sprayed in the same manner with the solvent blank. Application rates for component (a) are in g ai/ha, and application rates for component (b) are in g ai/ha.
# (§3) The treated plants and control plants were placed in a greenhouse as described above and watered by sub-irrigation to prevent wash-off of the test compounds. After 20-22 d, the condition of the test plants as compared with that of the control plants was determined visually and scored on a scale of 0 to 100 percent where 0 corresponds to no injury and 100 corresponds to complete kill. […] The Colby method was used to determine the herbicidal effects expected from the mixtures.
# [2] = system: poinsettia (Euphorbia heterophylla, EPHHL)
# Experimental: as §1, §2, §3
# [3] = system: wild buckwheat (Polygonum convolvulus, POLCO)
# Experimental: as §1, §2, §3
# [4] = system: spring rape (Brassica napus, BRSNN)
# Experimental: as §1, §2, §3
# [5] = system: giant foxtail (Setaria faberi, SETFA); conditions: two trials
# Experimental: as §1, §2, §3
# [6] = system: common chickweed (Stellaria media, STEME); conditions: two trials
# Experimental: as §1, §2, §3
# [7] = system: soybean (Glycine max, GLXMA); conditions: two trials
# Experimental: as §1, §2, §3
# [8] = system: velvetleaf (Abutilon theophrasti, ABUTH)
# Experimental: as §1, §2, §3
# [9] = system: thistle (Cirsium arvense CIRAR)
# Experimental: as §1, §2, §3
# [10] = system: sunflower (Helianthus annuus, HELAN); conditions: two trials
# Experimental: as §1, §2, §3
# maize (Zea mays, ZEAMX) = conditions: two trials
# Experimental: as §1, §2, §3
# [11] = system: common lambsquarters (Chenopodium album L., CHEAL)
# Experimental: as §1, §2, §3
# [12] = system: wild pansy (Viola tricolor, VIOTR)
# Experimental: as §1, §2, §3
# [13] = system: pigweed (Amaranthus retroflexus, AMARE); conditions: two trials
# Experimental: as §1, §2, §3
# [14] = system: barnyardgrass (Echinochloa crus-galli, ECHCG); conditions: two trials
# Experimental: as §1, §2, §3
# [15] = system: winter wheat (Triticum aestivum, TRZAW); conditions: two trials
# Experimental: as §1, §2, §3
# [16] = system: ivyleaf morningglory (Ipomoea hederacea, IPOHE); conditions: two trials
# Experimental: as §1, §2, §3
# [17] = system: kochia (Kochia scoparia, KCHSC)
# Experimental: as §1, §2, §3
# [18] = system: rice (Oryza sativa, ORYSA); conditions: two trials
# Experimental: as §1, §2, §3
# [19] = system: winter rape (Brassica napus, BRSNW); conditions: two trials
# Experimental: as §1, §2, §3
# [20] = system: large crabgrass (Digitaria sanguinalis, DIGSA); conditions: HPPD inhibitor 35 g ai/ha alone, two trials
# Experimental: as §1, §2, §3
# [21] = system: wild oat (Avena fatua, AVEFA); conditions: HPPD inhibitor 35 g ai/ha alone, two trials
# Experimental: as §1, §2, §3
# [22] = Sulcotrione 75 g ai/ha alone, two trials
# [23] = HPPD inhibitor 35 g ai/ha alone
# [24] = HPPD inhibitor 35 g ai/ha alone, two trials
smiles,measurement,setting,value
"CS(=O)(=O)c1ccc(C(=O)C2C(=O)CCCC2=O)c(Cl)c1 [Sulcotrione, 2-[2-chloro-4-(methylsulfonyl)benzoyl]-1,3-cyclohexanedione]","Effect (% visual injury), Obs",[1]; Sulcotrione 75 g ai/ha alone,0%
same,"Effect (% visual injury), Obs",[2]; [22],60%
same,"Effect (% visual injury), Obs",[3]; [22],48%
same,"Effect (% visual injury), Obs",[4]; [22],95%
same,"Effect (% visual injury), Obs",[5]; Sulcotrione 75 g ai/ha alone,0%
same,"Effect (% visual injury), Obs",[6]; Sulcotrione 75 g ai/ha alone,85%
same,"Effect (% visual injury), Obs",[7]; Sulcotrione 75 g ai/ha alone,65%
same,"Effect (% visual injury), Obs",[8]; [22],50%
same,"Effect (% visual injury), Obs",[9]; [22],70%
same,"Effect (% visual injury), Obs",[10]; Sulcotrione 75 g ai/ha alone,80%
same,"Effect (% visual injury), Obs","maize (Zea mays, ZEAMX); Sulcotrione 75 g ai/ha alone",0%
same,"Effect (% visual injury), Obs",[11]; [22],100%
same,"Effect (% visual injury), Obs",[12]; [22],73%
same,"Effect (% visual injury), Obs",[13]; Sulcotrione 75 g ai/ha alone,40%
same,"Effect (% visual injury), Obs",[14]; Sulcotrione 75 g ai/ha alone,40%
same,"Effect (% visual injury), Obs",[15]; Sulcotrione 75 g ai/ha alone,0%
same,"Effect (% visual injury), Obs",[16]; Sulcotrione 75 g ai/ha alone,65%
same,"Effect (% visual injury), Obs",[17]; [22],45%
same,"Effect (% visual injury), Obs",[18]; Sulcotrione 75 g ai/ha alone,5%
same,"Effect (% visual injury), Obs",[19]; Sulcotrione 75 g ai/ha alone,70%
"CS(=O)(=O)c1cc(C(F)(F)F)ccc1C(=O)c1cnoc1C1CC1 [Isoxaflutole, (5-cyclopropyl-4-isoxazolyl)[2-(methylsulfonyl)-4-(trifluoromethyl)phenyl]methanone]","Effect (% visual injury), Obs",[1]; [23],0%
same,"Effect (% visual injury), Obs",[2]; [24],43%
same,"Effect (% visual injury), Obs",[3]; [24],10%
same,"Effect (% visual injury), Obs",[4]; [24],85%
same,"Effect (% visual injury), Obs",[5]; [23],97%
same,"Effect (% visual injury), Obs",[6]; [23],10%
same,"Effect (% visual injury), Obs",[7]; [23],75%
same,"Effect (% visual injury), Obs",[8]; [24],45%
same,"Effect (% visual injury), Obs",[9]; [24],75%
same,"Effect (% visual injury), Obs",[20],50%
same,"Effect (% visual injury), Obs",[21],60%
same,"Effect (% visual injury), Obs",[10]; [23],90%
same,"Effect (% visual injury), Obs","maize (Zea mays, ZEAMX); [23]",0%
same,"Effect (% visual injury), Obs",[11]; [24],99%
same,"Effect (% visual injury), Obs",[12]; [24],45%
same,"Effect (% visual injury), Obs",[13]; [23],95%
same,"Effect (% visual injury), Obs",[14]; [23],25%
same,"Effect (% visual injury), Obs",[15]; [23],15%
same,"Effect (% visual injury), Obs",[16]; [23],70%
same,"Effect (% visual injury), Obs",[17]; [24],90%
same,"Effect (% visual injury), Obs",[18]; [23],30%
same,"Effect (% visual injury), Obs",[19]; [23],60%
"Cc1ccc(S(=O)(=O)Oc2c(C(=O)c3ccc(Cl)cc3Cl)c(C)nn2C)cc1 [Pyrazolynate, (2,4-dichlorophenyl)[1,3-dimethyl-5-[[(4-methylphenyl)sulfonyl]oxy]-1H-pyrazol-4-yl]methanone]","Effect (% visual injury), Obs",[2]; Pyrazolynate 225 g ai/ha alone,0%
same,"Effect (% visual injury), Obs",[3]; Pyrazolynate 225 g ai/ha alone,0%
same,"Effect (% visual injury), Obs",[4]; Pyrazolynate 225 g ai/ha alone,0%
same,"Effect (% visual injury), Obs",[8]; Pyrazolynate 225 g ai/ha alone,0%
same,"Effect (% visual injury), Obs",[9]; Pyrazolynate 225 g ai/ha alone,0%
same,"Effect (% visual injury), Obs",[11]; Pyrazolynate 225 g ai/ha alone,10%
same,"Effect (% visual injury), Obs",[12]; Pyrazolynate 225 g ai/ha alone,0%
same,"Effect (% visual injury), Obs",[17]; Pyrazolynate 225 g ai/ha alone,0%
